Patent publication US11369609B2, “Small molecule Wnt inhibitor as treatment for dyslipidemia” (Yale University, priority 2019, dated 2022)

Columns and labels:
canonical Wnt signaling [1] = assay: Renal fibrosis in unilateral ureteral obstruction (UUO) mice treated with Wnt inhibitor; format: in vivo
Method: UUO surgery procedure was performed as previously described (44). Briefly, mice were anesthetized with isoflurane (3%-5% for induction and 1%-3% for maintenance). Mice were shaved on the left side of the abdomen, a vertical incision was made through the skin with a scalpel, and the skin was retracted. A second incision was made through the peritoneum to expose the kidney. The left ureter was ligated twice 15 mm below the renal pelvis with surgical silk, and the ureter was then severed between the 2 ligatures. Then, the ligated kidney was placed gently back into its correct anatomical position, and sterile saline was added to replenish loss of fluid. The incisions were sutured and mice were individually caged. Buprenorphine was used as an analgesic. The first dose was administered 30 minutes before surgery and then every 12 h for 72 h, at a dose of 0.05 mg/kg subcutaneously. Mice were sacrificed and kidney and blood samples were harvested after perfusion with PBS at 10 days after UUO. Contralateral kidneys were used as a nonfibrotic control for all experiments using this model.
A point-counting method was utilized to evaluate the relative area of the mesangial matrix. PAS-stained glomeruli from each mouse were analyzed using a digital microscope screen grid containing 540 (27×20) points. Masson's trichrome-stained images were evaluated by ImageJ software, and the fibrotic areas were estimated.
Deparaffinized sections were incubated with picrosirius red solution for 1 hour at room temperature. The slides were washed twice with acetic acid solution for 30 seconds per wash. The slides were then dehydrated in absolute alcohol three times, cleared in xylene, and mounted with a synthetic resin. Sirius red staining was analyzed using ImageJ software, and fibrotic areas were quantified.
Paraffin-embedded kidney sections (5 μm thick) were deparaffinized and rehydrated (2 min in xylene, four times; 1 min in 100% ethanol, twice; 1 min in 95% ethanol; 45 s in 70% ethanol; and 1 min in distilled water), and the antigen was retrieved in a 10 mM citrate buffer pH 6 at 98° C. for 60 min. To block the endogenous peroxidase, all sections were incubated in 0.3% hydrogen peroxide for 10 min. The immunohistochemistry was performed using a Vectastain ABC Kit (Vector Laboratories, Burlingame, Calif.). Mouse anti-[…] antibody (1:100) and CPT1a (Abnova; H00001374-DO1P; 1:100) antibody was used. In the negative controls, the primary antibody was omitted and replaced with the blocking solution.
Frozen kidney sections (5 μm) were used for immunofluorescence; double positive labeling with CD31/αSMA, CD31/TGFβR1 and E-cadherin/αSMA was measured. Briefly, frozen sections were dried and placed in acetone for 10 min at −30° C. Once the sections were dried, they were washed twice in phosphate-buffered saline (PBS) for 5 min and then blocked in 2% bovine serum albumin/PBS for 30 min at room temperature. Thereafter, the sections were incubated in primary antibody (1:100) for 1 hour and washed in PBS (5 min) three times. Next, the sections were incubated with the secondary antibodies for 30 min, washed with PBS three times (5 min each), and mounted with mounting medium with DAPI (Vector Laboratories, Burlingame, Calif.). The immune-labeled sections were analyzed by fluorescence microscopy. For each mouse, original magnification of ×400 pictures were obtained from six different areas, and quantification was performed.
(§1) To determine whether inhibition of the Wnt signaling pathway could ameliorate the observed fibrosis, LGK974, a small molecule inhibitor of all secreted Wnts (43), was utilized. FIGS. 21A-21B depict the schematic diagram showing the experimental protocol for LGK974 treatment in diabetic CD-1 and UUO mice.

kidney endothelial cells = assay: Fatty acid oxidation (14CO2 release from [14C]palmitate) in isolated kidney endothelial cells; format: in vivo, mice; conditions: diabetic CD-1 mice, Wnt inhibitor
Method: Endothelial cells from the kidneys of non-diabetic and diabetic mice were isolated using a standardized kit (Miltenyl Biotech, USA) by following the manufacturer's instructions. Briefly, kidneys were isolated and minced into small pieces. Using a series of enzymatic reactions by treating the tissue with trypsin and Collagenase type I solution, a single cell suspension was created. The pellet was dissolved with CD31 magnetic beads and the CD31-labelled cells were separated on a magnetic separator. The cells were further purified on a column. Cell number was counted by hemocytometer and cells were plated on 0.1% gelatin coated Petri dishes.
Cultured isolated kidney endothelial cells were incubated with medium containing 0.75 mmol/L palmitate (conjugated to 2% free fatty acid-free BSA/[^14C] palmitate at 2 μCi/mL) for 2 h. One mL of the culture medium was transferred to a sealable tube, the cap of which housed a Whatman filter paper disc. ^14CO2 trapped in the media was then released by acidification of media using 60% perchloric acid. Radioactivity that had become adsorbed onto the filter discs was then quantified by liquid scintillation counting.
It is increasingly recognized that defects in central metabolism contribute to kidney fibrosis (69, 76). Defective FA metabolism in EC leads to EndMT events (77). To investigate whether FA metabolism was deranged in the model, radiolabeled [^14C]palmitate uptake experiments were performed in isolated EC from mouse kidneys. FA uptake was higher in isolated EC from the diabetic kidneys of the more fibrotic strain (diabetic CD-1) when compared to kidney EC from the less-fibrotic strain (diabetic C57BL/6). […] FA oxidation (FAO) was also assessed by measuring the ^14CO2 release from radiolabeled [^14C]palmitate in cultured EC isolated from kidneys. […] In the next set of experiments, diabetic CD-1 mice were treated with the FA synthase inhibitor C75, the FAO inhibitor etomoxir, the PPARα agonist fenofibrate, and the cholesterol-lowering drug simvastatin for 4 weeks. […] (FIG. 23A). Fenofibrate and C75 restored the level of GR protein in CD31 positive cells, whereas etomoxir and simvastatin suppressed it (FIG. 23B).

canonical Wnt signaling [2] = assay: Plasma cytokine array analysis (Luminex) in wnti-treated diabetic mice; format: in vivo
Method: FIG. 22. […] Cytokines and chemokines were measured in plasma by using the cytokine array analysis (Luminex). The plasma of wnti-treated diabetic mice was analyzed for cytokine array analysis. N=5/group. Data are shown as mean±SEM. Tukey test was used for the analysis of statistical significance. *p<0.05.
as §1

Cc1cc(-c2ncc(CC(=O)Nc3ccc(-c4cnccn4)cn3)cc2C)ccn1 [LGK974]
ECM deposition (canonical Wnt signaling [1]; LGK974 5 mg/kg): greatly diminished | collagen accumulation (canonical Wnt signaling [1]; LGK974 5 mg/kg): greatly diminished | glomerulosclerosis (canonical Wnt signaling [1]; LGK974 5 mg/kg): greatly diminished | relative area fibrosis (canonical Wnt signaling [1]; LGK974 5 mg/kg): greatly diminished | endothelial GR level (canonical Wnt signaling [1]; kidney CD31-positive cells): significantly restored | level of β-catenin (canonical Wnt signaling [1]; kidney immunohistochemistry): suppressed | level of FAO in isolated kidney EC (kidney endothelial cells): able to restore the level of FAO | cytokine- and chemokine reprogramming in plasma (canonical Wnt signaling [2]): disrupts the cytokine- and chemokine reprogramming | plasma CCL4 level (canonical Wnt signaling [2]): significantly suppressed | plasma CCL5 level (canonical Wnt signaling [2]): elevating | plasma G-CSF level (canonical Wnt signaling [2]): significantly suppressed | plasma IL-1β level (canonical Wnt signaling [2]): significantly suppressed | plasma IL-6 level (canonical Wnt signaling [2]): significantly suppressed | plasma IL-10 level (canonical Wnt signaling [2]): significantly suppressed | plasma MCP-1 level (canonical Wnt signaling [2]): significantly suppressed | plasma TNFα level (canonical Wnt signaling [2]): significantly suppressed
